Legend:
[1] = previous study; cited from earlier work
[2] = system: 10 hematological cell-lines; experiment: In vitro cytotoxicity screening on the panel of hematological cell-lines (WST-1); details: for effect on proliferation rate across the examined cell-lines: 10 hematological cell-lines, WST-1; for cytotoxic effect compared to the parental non-conjugated drug: chimera vs its parent drug
Procedure: The above cells were cultured in RPMI medium (Gibco, Thermo Fisher Scientific Inc., USA). […] All media were supplemented with 10% heat-inactivated Fetal Bovine Serum (FBS, Biological industries, Israel), 2 mM glutamine (Biological industries, Israel) and 1% penicillin and streptomycin (Biological industries, Israel). Cells were cultured at 37° C. in a humidified incubator with 5% CO2.
Growth inhibition in hematological malignancies cell-lines was measured by tetrazolium WST-1 assay (Roche, Basel, Switzerland). Cells (1*10^4) were treated with various concentrations of the specific chimera or parental drug. After 48 h of incubation, 10 μl of WST-1 reagent was added to the plate and incubated for 1 h at 37° C., at which point the absorbance (450 nm) was measured in an ELISA plate reader (Synergy HTX multi-mode reader, Winooski, Vermont, USA).
MUTZ5 and MHH-CALL4; B-cell Acute lymphocytic leukemia (B-cell ALL) model. DND41; T-ALL model. KG-1a and OCI-AML-3; Acute myeloid leukemia (AML) model and HEL; erythroleukemia model.

DND41 = experiment: WST-1 proliferation assay, DND41; format: cell-based, human; details: WST-1, 48 hours of treatment
Procedure: (§1) Albert Pinhasov (Ariel University, Ariel, Israel). […] Granta cells were kindly provided by Prof.
(§2) Table 3 [resents the calculated IC50 values (μM) for each chimera in different hematological malignancies cell-lines. The proliferation rate was measured by WST-1 assay after 48 hours of treatment. The result shown for each concentration point represents the […]

Rec-1 = experiment: WST-1 proliferation assay, Rec-1; format: cell-based, human; details: WST-1, 48 hours of treatment
Procedure: as §1, §2

HEL = experiment: WST-1 proliferation assay, HEL; format: cell-based, human; details: WST-1, 48 hours of treatment
Procedure: as §1, §2

JEKO-1 = experiment: WST-1 proliferation assay, JEKO-1; format: cell-based, human; details: WST-1, 48 hours of treatment
Procedure: as §1, §2

OCI-AML3 = experiment: WST-1 proliferation assay, OCI-AML3; format: cell-based; details: WST-1, 48 hours of treatment
Procedure: as §1, §2

MUTZ5 = experiment: WST-1 proliferation assay, MUTZ5; format: cell-based, human; details: WST-1, 48 hours of treatment
Procedure: as §1, §2

GRANTA = experiment: WST-1 proliferation assay, GRANTA; format: cell-based; details: WST-1, 48 hours of treatment
Procedure: as §1, §2

MHH-CALL4 = experiment: WST-1 proliferation assay, MHH-CALL4; format: cell-based, human; details: WST-1, 48 hours of treatment
Procedure: as §1, §2

KG-1a = experiment: WST-1 proliferation assay, KG-1a; format: cell-based; details: WST-1, 48 hours of treatment
Procedure: as §1, §2

MINO = experiment: WST-1 proliferation assay, MINO; format: cell-based, human; details: WST-1, 48 hours of treatment
Procedure: as §1, §2

[3] = system: aggressive papillary thyroid cancer cells; experiment: Proliferation of aggressive papillary thyroid cancer cells; format: cell-based; details: 10 nM and 100 nM, with respect to DMSO control
Procedure: Chimera 9 (also referred to herein as Doxorubizen) was evaluated in two different concentrations (10 nM and 100 nM) on aggressive papillary thyroid cancer and with respect to the parent anticancer drug Doxorubicin.

[4] = system: Human primary anaplastic thyroid cancer (ATC) cells; experiment: Vitality/proliferation of primary anaplastic thyroid cancer cells; format: cell-based; details: 100 nM, 250 nM, 500 nM; 3, 5 and 7 days
Procedure: Human primary anaplastic thyroid cancer (ATC) cells were treated with chimera 9 (100 nM, 250 nM, and 500 nM), or Doxorubicin (100 nM, 250 nM, and 500 nM), or with vehicle, for 3, 5, and 7 days.

[5] = system: triple negative breast cancer (TNBC) MDA 231 cells
Procedure: Five-week-old athymic Nude-Foxn 1nu male mice (ENVIGO Labs, Nes Ziona, Israel) were subcutaneously inoculated on the dorsal left side with […] (1×10^6 cell) into nu/nu mice, 0.2 mL per mouse) and tumors allowed to establish over time. When tumor volume reached 100 mm^3, Doxorubicin (Dox) and Doxorubizen (Chimera 9) were administered intraperitoneally (ip). Animals were removed from an experiment if either of the following conditions were fulfilled: reduction of 20% or more body weight; tumor volume>0.55 cm^3. The tumor dimensions were measured using a Vernier caliper and the volume was calculated according to the equation: Volume (mm^3) ¼ length×width×width×½ three times per week. The in vivo experiments were approved by the Animal Ethics Committee (Authorization number IL-179-06-19).
Chimera 9 was also evaluated for its effect on breast cancer model. For this evaluation, […] nude female (6-8 weeks) mice (groups 1, 2, two mice per group, groups 3, 4, 5 three mice per group) were inoculated with triple negative breast cancer (TNBC) MDA 231 cells. Group 1 was used as the control for tumor growth. After 10 days, mice were […] (ip) administered with Doxorubicin (groups 2 and 4) and Chimera 9 (Doxorubizen) (groups 3 and 5) in the following regime: ip administration of 2.5 mg/kg Doxorubicin once per week (group 2) and three sequential days per week (group 4); ip administration of 3.5 mg/kg chimera 9 once per week (group 3) and three sequential days per week (group 5). Overall experiment carried out for 5 weeks and 4 days, when the tumor volumes for all the groups were monitored. Tumors were then resected and measured.

SMILES	effect on proliferation rate across the examined cell-lines [2]	IC50 (DND41)	IC50 (Rec-1)	IC50 (HEL)	IC50 (JEKO-1)	IC50 (OCI-AML3)	IC50 (MUTZ5)	IC50 (GRANTA)	IC50 (MHH-CALL4)	IC50 (KG-1a)	IC50 (MINO)	further results
COC(=O)N(C)/N=N/c1ccc(COC(=O)Nc2cc3c4c(cccc4c2)C(=O)N(CCN(C)C)C3=O)cc1 [Amonafidazene]	–	–	–	–	–	–	–	–	–	–	–	biological parameters in vitro and in vivo compared with parent Amonafide [1]: superior in all biological parameters
CCc1c2c(nc3ccc(OCc4ccc(/N=N\N(C)C(=O)OC)cc4)cc13)-c1cc3c(c(=O)n1C2)COC(=O)[C@]3(O)CC [Chimera 1, (S,Z)-methyl3-(4-(((4,11-diethyl-4-hydroxy-3,14-dioxo-3,4,12,14-tetrahydro-1H pyrano [3′,4′:6,7]indolizino[1,2-b]quinolin-9-yl)oxy)methyl)phenyl)-1-methyltriaz-2-ene-1-carboxylate]	inhibited the proliferation rate in all the examined cell-lines	–	–	–	–	–	–	–	–	–	–	cytotoxic effect compared to the parental non-conjugated drug [2]: less than superior cytotoxic effect
CCc1c2c(nc3ccc(OCc4ccc(N=NN(C)C(=O)OC)cc4)cc13)-c1cc3c(c(=O)n1C2)COC(=O)C3(O)CC (centres unmarked) [Chimera 1]	–	1.99 µM	0.59 µM	0.55 µM	0.36 µM	12.3 µM	3.02 µM	8.42 µM	1.2 µM	1.04 µM	0.63 µM	–
COC(=O)N(C)/N=N/c1ccc(CNc2cccc3c2CN(C2CCC(=O)NC2=O)C3=O)cc1 (centres unmarked) [Chimera 2, (E)-methyl 3-(4-(((2-(2,6-dioxopiperidin-3-yl)-1-oxoisoindolin-4-yl)amino)methyl)phenyl)-1-methyltriaz-2-ene-1-carboxylate]	decreased the proliferation rate in at least 3 cell-lines	–	–	–	–	–	–	–	–	–	–	–
COC(=O)N(C)/N=N/c1ccc(CNc2cccc3c2CN(C2CCC(=O)NC2=O)C3=O)cc1 (centres unmarked) [Chimera 2]	–	> 50 µM	14.2 µM	1.17 µM	22.8 µM	17.1 µM	47.5 µM	> 50 µM	24 µM	46 µM	5.7 µM	–
COC(=O)N(C)/N=N/c1ccc(COc2c(OC)cc([C@@H]3c4cc5c(cc4[C@@H](OC4O[C@@H]6CO[C@@H](C)O[C@H]6[C@H](O)[C@H]4O)[C@H]4COC(=O)[C@H]34)OCO5)cc2OC)cc1 (some centres unmarked) [Chimera 3]	–	> 50 µM	23.7 µM	43.1 µM	28.6 µM	10.2 µM	34.8 µM	42.1 µM	> 50 µM	> 50 µM	30.3 µM	cytotoxic effect compared to the parental non-conjugated drug [2]: did not show prevalence over Etoposide
COC(=O)N(C)/N=N/c1ccc(COc2cc(/C=C\c3cc(OC)c(OC)c(OC)c3)ccc2OC)cc1 [Chimera 4, (E)-methyl3-(4-((2-methoxy-5-((Z)-3,4,5-trimethoxystyryl)phenoxy)methyl)phenyl)-1-methyltriaz-2-ene-1-carboxylate]	decreased the proliferation rate in at least 3 cell-lines	–	–	–	–	–	–	–	–	–	–	cytotoxic effect compared to the parental non-conjugated drug [2]: less than superior cytotoxic effect
COC(=O)N(C)/N=N/c1ccc(COc2cc(/C=C\c3cc(OC)c(OC)c(OC)c3)ccc2OC)cc1 [Chimera 4]	–	27.6 µM	0.13 µM	1.63 µM	13.8 µM	> 50 µM	39.8 µM	41.5 µM	21.6 µM	4.72 µM	0.69 µM	–
COC(=O)N(C)/N=N/c1ccc(Cn2cc(F)c(=O)[nH]c2=O)cc1 [Chimera 5, (E)-methyl3-(4-((5-fluoro-2,4-dioxo-3,4-dihydropyrimidin-1(2H)-yl)methyl)phenyl)-1-methyltriaz-2-ene-1-carboxylate]	decreased the proliferation rate in at least 3 cell-lines	–	–	–	–	–	–	–	–	–	–	–
COC(=O)N(C)/N=N/c1ccc(Cn2cc(F)c(=O)[nH]c2=O)cc1 [Chimera 5]	–	30.9 µM	0.13 µM	2.72 µM	> 50 µM	22.7 µM	44.6 µM	> 50 µM	32.4 µM	27.7 µM	29.7 µM	–
COC(=O)N(C)/N=N/c1ccc(CSc2ncnc3nc[nH]c23)cc1 [Chimera 6, (E)-methyl 3-(4-(((7H-purin-6-yl)thio)methyl)phenyl)-1-methyltriaz-2-ene-1-carboxylate]	decreased the proliferation rate in at least 3 cell-lines	–	–	–	–	–	–	–	–	–	–	–
COC(=O)N(C)/N=N/c1ccc(CSc2ncnc3nc[nH]c23)cc1 [Chimera 6]	–	> 50 µM	20.5 µM	13.5 µM	39.5 µM	8.76 µM	31 µM	> 50 µM	16.6 µM	39.2 µM	6.88 µM	–
COC(=O)N(C)/N=N/c1ccc(CNc2nc3ccc(OC(F)(F)F)cc3s2)cc1 [Chimera 7, (E)-methyl1-methyl-3-(4-(((6-(trifluoromethoxy)benzo [d]thiazol2yl)amino)methyl)phenyl) triaz-2-ene-1-carboxylate]	decreased the proliferation rate in at least 3 cell-lines	–	–	–	–	–	–	–	–	–	–	cytotoxic effect compared to the parental non-conjugated drug [2]: reduced proliferation rate of numerous cell-lines
COC(=O)N(C)/N=N/c1ccc(CNc2nc3ccc(OC(F)(F)F)cc3s2)cc1 [Chimera 7]	–	2.37 µM	18 µM	2.37 µM	> 50 µM	14.2 µM	1.81 µM	43 µM	5.25 µM	23 µM	7.8 µM	–
COC(=O)N(C)/N=N/c1ccc(CNc2cc3c4c(cccc4c2)C(=O)N(CCN(C)C)C3=O)cc1 [Chimera 8]	–	20.9 µM	> 50 µM	1.97 µM	7.12 µM	12.7 µM	10.3 µM	> 50 µM	36 µM	19.1 µM	13.3 µM	–
COc1cccc2c1C(=O)c1c(O)c3c(c(O)c1C2=O)C[C@@](O)(C(=O)CO)C[C@@H]3O[C@H]1C[C@H](N)[C@H](O)[C@H](C)O1 [Doxorubicin, reference compound]	–	–	–	–	–	–	–	–	–	–	–	proliferation of thyroid cancer cells [3]: no effect on cell proliferation; vitality/proliferation of primary human ATC cells [4]: reduced the vitality/proliferation of primary human ATC cells significantly; day of sacrifice due to large tumor volumes and severe animal conditions ([5]; Group 2: ip 2.5 mg/kg once per week): 12 days; day of death due to over toxication ([5]; Group 4: ip 2.5 mg/kg, three sequential days per week): 20 days

— patent publication US20260151413A1, “ANTICANCER DRUG CONJUGATES” (Ariel Scientific Innovations Ltd., priority 2022, published 2026)
